Experimental data as given in patent publication US20090270443A1, “1-AMINO IMIDAZO-CONTAINING COMPOUNDS AND METHODS” (priority 2004, published 2009).

melting point | SMILES
110 to 120 °C | CCOCc1nc2c(N)nc(C)c(C)c2n1NC(C)C [Example 1, 2-(Ethoxymethyl)-N^1-isopropyl-6,7-dimethyl-1H-imidazo[4,5-c]pyridine-1,4-diamine]
139 to 141 °C | CCOCc1nc2c(N)nc(C)cc2n1NC(C)C [Example 3, 2-(Ethoxymethyl)-N^1-isopropyl-6-methyl-1H-imidazo[4,5-c]pyridine-1,4-diamine]
176 to 178 °C | CCc1nc2c(N)nc3cccnc3c2n1NCCCNS(C)(=O)=O [Example 8, N-{3-[(4-amino-2-ethyl-1H-imidazo[4,5-c][1,5]naphthyridin-1-yl)amino]propyl}methanesulfonamide]
170 to 171 °C | CCOCc1nc2c(N)nc(C)c(C)c2n1N(C)C [Example 9, 2-(Ethoxymethyl)-N^1,N^1,6,7-tetramethyl-1H-imidazo[4,5-c]pyridine-1,4-diamine]
203 to 205 °C | Cc1nc(N)c2nc(C)n(NC(C)C)c2c1C [Example 11, N^1-Isopropyl-2,6,7-trimethyl-1H-imidazo[4,5-c]pyridine-1,4-diamine]
257 to 259 °C | Cc1nc(N)c2nc(CO)n(NC(C)C)c2c1C [Example 12, (4-Amino-1-isopropylamino-6,7-dimethyl-1H-imidazo[4,5-c]pyridin-2-yl)methanol]
147 to 149 °C | CCOCc1nc2c(N)nc(C)c(C)c2n1NCCCNS(C)(=O)=O [Example 13, N-{3-[(4-Amino-2-ethoxymethyl-6,7-dimethyl-1H-imidazo[4,5-c]pyridin-1-yl)amino]propyl}methanesulfonamide]
166 to 168 °C | CCOCc1nc2c(N)nc(C)c(C)c2n1NCCCNC(=O)C1CCCCC1 [Example 14, N-{3-[(4-Amino-2-ethoxymethyl-6,7-dimethyl-1H-imidazo[4,5-c]pyridin-1-yl)amino]propyl}cyclohexanecarboxamide]
215 to 217 °C | Cc1nc(N)c2nc(C)n(NCCCNS(C)(=O)=O)c2c1C [Example 15, N-{3-[(4-Amino-2,6,7-trimethyl-1H-imidazo[4,5-c]pyridin 1-yl)amino]propyl}methanesulfonamide]
203 to 205 °C | CCOCc1nc2c(N)nc(C)c(C)c2n1NCCCNC(=O)NC(C)C [Example 16, 1-{3-[(4-Amino-2-ethoxymethyl-6,7-dimethyl-1H-imidazo[4,5-c]pyridin-1-yl)amino]propyl}-3-isopropylurea]
108 to 110 °C | CCOCc1nc2c(N)nc(C)c(C)c2n1NC1CCCCC1 [Example 17, N^1-Cyclohexyl-2-ethoxymethyl-6,7-dimethyl-1H-imidazo[4,5-c]pyridine-1,4-diamine]
147 to 149 °C | CCOCc1nc2c(N)nc(C)c(C)c2n1NCc1cccnc1 [Example 19, 2-Ethoxymethyl-6,7-dimethyl-N^1-(pyridin-3-yl)methyl-1H-imidazo[4,5-c]pyridine-1,4-diamine]
149 to 151 °C | CCOCc1nc2c(N)nc(C)c(C)c2n1NCc1ccccc1 [Example 21, N^1-Benzyl-2-ethoxymethyl-6,7-dimethyl-1H-imidazo[4,5-c]pyridine-1,4-diamine]
139 to 141 °C | CCOCc1nc2c(N)nc(C)c(C)c2n1NC1CCC1 [Example 23, N^1-Cyclobutyl-2-ethoxymethyl-6,7-dimethyl-1H-imidazo[4,5-c]pyridine-1,4-diamine]
120 to 122 °C | CCOCc1nc2c(N)nc(C)c(C)c2n1NC1CCOCC1 [Example 25, 2-Ethoxymethyl-6,7-dimethyl-N^1-(tetrahydropyran-4-yl)-1H-imidazo[4,5-c]pyridine-1,4-diamine]

Second part, the compound before the results:

SMILES | melting point
CCOCc1nc2c(N)ncc(C)c2n1NC(C)C [Example 2, 2-(Ethoxymethyl)-N^1-isopropyl-7-methyl-1H-imidazo[4,5-c]pyridine-1,4-diamine] | 119 to 121 °C
CCOCc1nc2c(N)nc3cccnc3c2n1NC(C)C [Example 4, 2-(Ethoxymethyl)-N^1-isopropyl-1H-imidazo[4,5-c][1,5]naphthyridine-1,4-diamine] | 150 to 152 °C
CC(C)Nn1c(CO)nc2c(N)nc3cccnc3c21 [Example 6, [4-Amino-1-(isopropylamino)-1H-imidazo[4,5-c][1,5]naphthyridin-2-yl]methanol] | 242 to 243 °C
CCc1nc2c(N)nc3cccnc3c2n1NC(C)C [Example 7, 2-Ethyl-N^1-isopropyl-1H-imidazo[4,5-c][1,5]naphthyridine-1,4-diamine] | 212 to 213 °C
Cc1nc(N)c2ncn(N(C)C)c2c1C [Example 10, N^1,N^1,6,7-Tetramethyl-1H-imidazo[4,5-c]pyridine-1,4-diamine] | 205 to 207 °C
Cc1nc(N)c2nc(CO)n(NC3CCCCC3)c2c1C [Example 18, (4-Amino-1-cyclohexylamino-6,7-dimethyl-1H-imidazo[4,5-c]pyridin-2-yl)methanol] | > 250 °C
Cc1nc(N)c2nc(CO)n(NCc3cccnc3)c2c1C [Example 20, [4-Amino-6,7-dimethyl-1-(pyridin-3-yl)methylamino-1H-imidazo[4,5-c]pyridin-2-yl]methanol] | 258 to 260 °C
Cc1nc(N)c2nc(CO)n(NCc3ccccc3)c2c1C [Example 22, (4-Amino-1-benzylamino-6,7-dimethyl-1H-imidazo[4,5-c]pyridin-2-yl)methanol] | > 250 °C
Cc1nc(N)c2nc(CO)n(NC3CCC3)c2c1C [Example 24, (4-Amino-1-cyclobutylamino-6,7-dimethyl-1H-imidazo[4,5-c]pyridin-2-yl)methanol] | 211 to 213 °C
Cc1nc(N)c2nc(CO)n(NC3CCOCC3)c2c1C [Example 26, [4-Amino-6,7-dimethyl-1-(tetrahydropyran-4-yl)amino-1H-imidazo[4,5-c]pyridin-2-yl]methanol] | > 250 °C
CCOCc1nc2cnc(C)c(C)c2n1NC1CCOCC1 [Example 27, 2-Ethoxymethyl-6,7-dimethyl-N-(tetrahydropyranyl)-1H-imidazo[4,5-c]pyridin-1-amine] | 94 to 97 °C
Cc1nc(N)c2nc(C)n(NC3CCCCC3)c2c1C [Example 28, N^1-Cyclohexyl-2,6,7-trimethyl-1H-imidazo[4,5-c]pyridine-1,4-diamine] | 242 to 244 °C
CCc1nc2c(N)nc(C)c(C)c2n1NC1CCCCC1 [Example 29, N^1-Cyclohexyl-2-ethyl-6,7-dimethyl-1H-imidazo[4,5-c]pyridine-1,4-diamine] | 190 to 192 °C
Cc1nc(N)c2ncn(NC3CCCCC3)c2c1C [Example 30, N^1-Cyclohexyl-6,7-dimethyl-1H-imidazo[4,5-c]pyridine-1,4-diamine] | 259 to 261 °C
CCCCc1nc2c(N)nc(C)c(C)c2n1NC1CCCCC1 [Example 31, 2-Butyl-N^1-cyclohexyl-6,7-dimethyl-1H-imidazo[4,5-c]pyridine-1,4-diamine] | 160 to 162 °C
Cc1nc(N)c2nc(C)n(NC3CCOCC3)c2c1C [Example 32, 2,6,7-Trimethyl-N^1-(tetrahydropyran-4-yl)-1H-imidazo[4,5-c]pyridine-1,4-diamine] | 240 to 242 °C
